Experiments:
macrophages = assay: In vivo macrophage homing to the pancreas, bioluminescence imaging; parameters: species or system FVB/n mice; conditions: single dose of hemin 24 h prior to cell transfer
Description: FIG. 4: Effect of hemin on in vivo macrophage homing to the pancreas using bioluminescence imaging. (A) Experimental scheme of cell transfer. Hemin (H) was injected 3× intraperitoneally into luciferase-overexpressing (+/+) mice, then peritoneal cells were harvested and macrophages were selected using anti-Mac-1 magnetic beads. Luciferase/Mac-1 double-positive cells were transferred intraperitoneally to wild-type (luciferase −/−) mice that were preinjected with one dose of H or vehicle (V) 24 h prior to the transfer. This hemin injection is necessary to induce pancreatic chemokines (FIG. 3C). (B) Live images of recipient intact anesthetized mice were taken 5 min (a) or 24 h (b) after cell transfer. Livers and pancreata were removed 24 h after the transfer followed by imaging (c). The signal intensity scale bar is shown below each image. (C) A duplicate of the pancreata shown in image c of panel B (from recipients receiving donor cells from H-injected animals) was double-stained with antibodies to luciferase and F4/80. […] Bar in panel c=50 μm.
The present invention offers a novel approach of immune-mediated therapy via the unanticipated effect of hemin on leukocyte recruitment to the pancreas. Based on a mouse animal model of pancreatitis, the therapeutic approach of the present invention has applicability to other mammalian, particularly human, pancreatitis. […]

MCP-1 = assay: Real-time RT-PCR of pancreatic chemokine mRNA after hemin; assay type: in vivo, mice; conditions: pancreas 24 h after one intraperitoneal injection
Description: (§1) FIG. 3: Hemin increases HO-1^+ pancreatic macrophages in association with MCP-1 and MIP-1α induction. (A) Pancreas from CDD-fed mice was triple-stained using antibodies to HO-1 (a), the macrophage marker F4/80 (b), and the granulocyte marker Gr-1 (c). Scale bar in panel d=[…]. (B) Mice were treated intraperitoneally with hemin (H) or vehicle (V) once (H×1) or 3×(H×3, V×3) during a one week period, followed by feeding with CDD or regular chow for 3 d. Pancreata were collected followed by staining and counting F4/80^+ macrophages in 10 randomly selected high power fields (HPF). The mean±SD (3 mice/group) and p-value for the indicated comparisons are shown. (C) Hemin (H) or vehicle (V) were injected intraperitoneally once followed by harvesting of pancreata after 24 h. A non-injected control “C” group was also included. mRNA levels were then estimated from pancreata of 3 mice/group as a ratio of the indicated chemokine to β-actin (mean±SD).
(§2) Real-time reverse transcription (RT)-PCR. Total RNA was isolated from pancreatic tissue using a commercial kit (TEL-TEST; Friendswood, Tex.). First strand cDNA was synthesized using oligo-dT primers and SuperScript II reverse transcriptase (Invitrogen; Carlsbad, Calif.). Real-time quantitative PCR was performed with an ABI Prism 7900 Sequence Detection System (PE Biosystems; Foster City, Calif.) and established primers for MCP-1, MIP-1α, MIP-2, RANTES, and β-actin. Zhong, B., et al., J. Cell Sci. 117:1709-1719; Zhang, Y., McCormick, L. L., Desai, S. R., Wu, C., and Gilliam, A. C. 2002. Murine sclerodermatous graft-versus-host disease, a model for human scleroderma: cutaneous cytokines, chemokines, and immune cell activation. J. Immunol. 168:3088-3098; Walzog, B., Weinmann, P., Jeblonski, F., Scharffetter-Kochanek, K., Bommert, K., and Gaehtgens, P. 1999. A role for beta(2) integrins (CD11/CD18) in the regulation of cytokine20 gene expression of polymorphonuclear neutrophils during the inflammatory response. FASEB J. 13:1855-1865. Primers to β-actin were used as an internal control reference, and the amount of specific cytokine relative to actin transcript was determined and reported as mean±SD.

RANTES = assay: as above; assay type: in vivo, mice; conditions: pancreas 24 h after one intraperitoneal injection
Description: as §1, §2

MIP-1α = assay: as above; assay type: in vivo, mice; conditions: pancreas 24 h after one intraperitoneal injection
Description: as §1, §2

MIP-2 = assay: as above; assay type: in vivo, mice; conditions: pancreas 24 h after one intraperitoneal injection
Description: as §1, §2

Hemin
macrophage recruitment to the pancreas after hemin priming of recipients (macrophages): stimulates pancreatic chemokine production and triggers migration of macrophages to the pancreas
MCP-1 mRNA (ratio to β-actin) (MCP-1): induction
change in RANTES mRNA level (RANTES): not significant
MIP-1α mRNA (ratio to β-actin) (MIP-1α): induction
change in MIP-2 mRNA level (MIP-2): not significant

— patent publication US7745402B2, “Method of treating pancreatitis” (Lundbeck Inc., priority 2005, dated 2010)
